Our source for the IC50 and EC50 values is patent US10899758B2, “Inhibitors of the menin-MLL interaction” (Vitae Pharmaceuticals, LLC, priority 2016, dated 2021).

The target of assay [1] is T1, menin/MLL binding (biotinylated wild-type or mutated menin and MLL-AF9 fusion protein) (Homo sapiens, UniProt O00255).
T1 construct: biotinylated (1) wild-type menin or (2) mutated menin (described in Nature (2012) Vol. 482, pp. 542-548); fused on or other part: Biotin attached chemically (Sulfo-NHS-Biotin); no fused second protein is printed for menin
T1 sequence (O00255 1-459 limits assumed): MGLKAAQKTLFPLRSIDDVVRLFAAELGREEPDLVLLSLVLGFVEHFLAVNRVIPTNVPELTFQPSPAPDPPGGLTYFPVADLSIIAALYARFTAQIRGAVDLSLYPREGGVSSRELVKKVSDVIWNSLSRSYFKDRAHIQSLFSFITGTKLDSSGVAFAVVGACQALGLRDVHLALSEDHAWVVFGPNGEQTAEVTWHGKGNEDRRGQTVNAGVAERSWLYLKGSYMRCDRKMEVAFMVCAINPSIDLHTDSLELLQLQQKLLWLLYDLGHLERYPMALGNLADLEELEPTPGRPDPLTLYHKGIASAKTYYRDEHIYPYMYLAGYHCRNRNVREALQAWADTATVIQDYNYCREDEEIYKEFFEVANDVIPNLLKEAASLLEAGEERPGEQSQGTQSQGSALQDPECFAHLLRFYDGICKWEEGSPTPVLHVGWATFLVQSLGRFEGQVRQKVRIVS
Nature of the assay: Assay 1 (Binding Assay): AlphaLISA menin/MLL binding. The following applies: 5 nM biotinylated menin, MLL-AF9-FLAG lysate. In short, it runs like this: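 Biotinylated E. coli-expressed menin (wild-type or mutant), 5 nM, incubated 30 min RT with compound and HEK293 lysate of MLL1-1,396–AF9-FLAG in pH 7.4 Tris buffer, 5% DMSO, 1 mM DTT. Anti-FLAG acceptor and streptavidin donor beads added, 60 min RT, AlphaLISA signal read. IC50 from four-parameter fit of % inhibition.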

For assay [2], the system named is human acute monocytic leukemia cell line MV-4-11. The assay is described as follows: Assay 2 (Cell Proliferation Assay), ATP quantitation (CellTiter-Glo). It is filed as cell-based. The conditions noted are these: MV-4-11 cells, read-out: Assay 2 (EC50, inhibition of cell proliferation). The method, then: Potencies of inhibitor compounds against cell proliferation was assessed against the human acute monocytic leukemia cell line MV-4-11 (ATCC® CRL-9591™) based on ATP quantitation. MV-4-11 cells or toxicity control HL-60 cells (ATCC® CCL-240™) were incubated in 96-well tissue culture plates (1.67×10^4 cells in 200 μL culture media containing 10% FBS per well) with or without test compound for 72 h at 37° C., 5% CO2. After incubation, each well was mixed by pipetting and 95 μL from each well was transferred to a well in 96-well black OptiPlate® plates (PerkinElmer). An equal volume of CellTiter-Glo® Luminescent Cell Viability Assay reagent (Promega) was added to each well, followed by mixing for 5 min on an orbital plate shaker. Luminescence was measured on a Wallac EnVision 2104 Multilabel Reader (PerkinElmer) to quantitate ATP. Percent inhibition of cell proliferation by test compounds was calculated based on uninhibited cell growth (DMSO) versus cells treated with a potent menin inhibitor at a concentration yielding at least 100×LD50.
A general note: In ATP-based viability assays light output follows the ATP content of the culture.

Where two headings read alike, the source gives them in different places.

By IC50 is commonly meant the point on the concentration scale where inhibition reaches its midpoint. High values mean weaker potency in that assay, low ones greater potency in that assay. In assay [1], `CC(C)N(C)C(=O)c1cc(F)ccc1-n1cc(C2CCCN(Cc3ccc4[nH]c(=O)[nH]c4c3)C2)c2ccncc21` (stereo not drawn) [Example 43, 5-fluoro-N-isopropyl-N-methyl-2-(3-(1-((2-oxo-2,3-dihydro-1H-benzo[d]imidazol-5-yl)methyl)piperidin-3-yl)-1H-pyrrolo[2,3-c]pyridin-1-yl)benzamide] registered an IC50 of less than 100 nM. Besides, the EC50 in assay [2] (Homo sapiens, MV4-11, 72 h) was less than 100 nM.

`CC(C)N(C)C(=O)c1cc(F)ccc1-n1cc(C2CCCN(Cc3ccc4c(c3)[nH]c(=O)n4CCO)C2)c2ccncc21` (single isomer, unassigned) [Example 44B, 5-fluoro-2-(3-(1-((1-(2-hydroxyethyl)-2-oxo-2,3-dihydro-1H-benzo[d]imidazol-5-yl)methyl)piperidin-3-yl)-1H-pyrrolo[2,3-c]pyridin-1-yl)-N-isopropyl-N-methylbenzamide] came in with an IC50 in assay [1] of less than 100 nM. The EC50 in assay [2] (Homo sapiens, MV4-11, 72 h) was less than 100 nM.

On to `CC(C)N(C)C(=O)c1cc(F)ccc1-n1cc(C2CCN(C[C@H]3CC[C@H](NS(C)(=O)=O)CC3)C2)c2ccncc21` (stereo partly drawn) [Example 124, N-methyl-5-fluoro-N-isopropyl-2-(3-(1-((trans-4-(methylsulfonamido)cyclohexyl)methyl)pyrrolidin-3-yl)-1H-pyrrolo[2,3-c]pyridin-1-yl)benzamide], for which the half-inhibitory concentration (IC50) in assay [1] was less than 100 nM. Also, the EC50 in assay [2] (Homo sapiens, MV4-11, 72 h) is 100 to 1000 nM.

The compound `CC(=O)N[C@H]1CC[C@H](CCN2CCC(c3cn(-c4ccc(F)cc4C(=O)N(C)C(C)C)c4cnccc34)CC2)CC1` [Example 18, 2-(3-(1-(2-(trans-4-acetamidocyclohexyl)ethyl)piperidin-4-yl)-1H-pyrrolo[2,3-c]pyridin-1-yl)-5-fluoro-N-isopropyl-N-methylbenzamide] registered a half-inhibitory concentration (IC50) in assay [1] of less than 100 nM. Besides, the EC50 in assay [2] (Homo sapiens, MV4-11, 72 h) was 100 to 1000 nM.

`CCN(C(=O)c1cc(F)ccc1-n1cc(C2CCCN(Cc3ccc4[nH]c(=O)[nH]c4c3)C2)c2ccncc21)C(C)C` (single isomer, unassigned) [Example 47A] yielded an IC50 in assay [1] of less than 100 nM. Besides, the EC50 in assay [2] (Homo sapiens, MV4-11, 72 h) is less than 100 nM.

In turn, `CC(C)N(C(=O)c1cc(F)ccc1-n1cc(C2CN(CC[C@H]3CC[C@H](NC(=O)OC(C)(C)C)CC3)C2)c2ccncc21)C(C)C` [Example 136, tert-butyl ((1r,4r)-4-(2-(3-(1-(2-(diisopropylcarbamoyl)-4-fluorophenyl)-1H-pyrrolo[2,3-c]pyridin-3-yl)azetidin-1-yl)ethyl)cyclohexyl)carbamate] displayed an IC50 in assay [1] of less than 100 nM. Also, in assay [2] (Homo sapiens, MV4-11, 72 h), the EC50 is less than 100 nM.

In the case of `CC(C)N(C)C(=O)c1cc(F)ccc1-n1cc([C@H]2CC[C@@H](N3CCCC3)CC2)c2ccncc21` [Example 56, 5-fluoro-N-isopropyl-N-methyl-2-(3-(cis-4-(pyrrolidin-1-yl)cyclohexyl)-1H-pyrrolo[2,3-c]pyridin-1-yl)benzamide], the IC50 in assay [1] is less than 100 nM. For the same compound, in assay [2] (Homo sapiens, MV4-11, 72 h), the EC50 lay within 100 to 1000 nM.

For `CC(C)N(C)C(=O)c1cc(F)ccc1-n1cc(C2CCN(CC[C@H]3CC[C@H](NC(=O)OC(C)(C)C)CC3)CC2)c2ccncc21` [Example 18A, tert-butyl (trans-4-(2-(4-(1-(4-fluoro-2-(isopropyl(methyl)carbamoyl)phenyl)-1H-pyrrolo[2,3-c]pyridin-3-yl)piperidin-1-yl)ethyl)cyclohexyl)carbamate], the IC50 in assay [1] was less than 100 nM. The EC50 in assay [2] (Homo sapiens, MV4-11, 72 h) was in the range of 100 to 1000 nM.

In turn, `CC(C)N(C(=O)c1cc(F)ccc1-n1cc(C2CCN(Cc3ccc4oc(=O)[nH]c4c3)C2)c2ccncc21)C(C)C` (stereo not drawn) [Example 140, 5-fluoro-N,N-diisopropyl-2-(3-(1-((2-oxo-2,3-dihydrobenzo[d]oxazol-5-yl)methyl)pyrrolidin-3-yl)-1H-pyrrolo[2,3-c]pyridin-1-yl)benzamide] registered an IC50 in assay [1] of less than 100 nM. The EC50 in assay [2] (Homo sapiens, MV4-11, 72 h) is less than 100 nM.

As to `CCN(C(=O)c1cc(F)ccc1-n1cc(C2CCCN(Cc3ccc4[nH]c(=O)[nH]c4c3)C2)c2ccncc21)C(C)C` (single isomer, unassigned) [Example 47B], the IC50 in assay [1] was less than 100 nM. In assay [2] (72 h), the EC50 is less than 100 nM.

`CC(C)N(C(=O)c1cc(F)ccc1-n1cc(C2CN(CC[C@H]3CC[C@H](NS(C)(=O)=O)CC3)C2)c2ccncc21)C(C)C` [Example 137, 5-fluoro-N,N-diisopropyl-2-(3-(1-(2-((1r,4r)-4-(methylsulfonamido)cyclohexyl)ethyl)azetidin-3-yl)-1H-pyrrolo[2,3-c]pyridin-1-yl)benzamide] returned an IC50 in assay [1] of less than 100 nM. The EC50 in assay [2] (Homo sapiens, MV4-11, 72 h) was less than 100 nM.

Turning to `CCN(C(=O)c1cc(F)ccc1-n1cc(C2CCN(Cc3ccccc3)CC2)c2ccncc21)C(C)C` [Example 32, 2-(3-(1-benzylpiperidin-4-yl)-1H-pyrrolo[2,3-c]pyridin-1-yl)-N-ethyl-5-fluoro-N-isopropylbenzamide], the IC50 in assay [1] was less than 100 nM. Besides, the EC50 in assay [2] (Homo sapiens, MV4-11, 72 h) was less than 100 nM.

Consider `CC(C)N(C)C(=O)c1cc(F)ccc1-n1cc(C2CCCN(C[C@H]3CC[C@H](NS(C)(=O)=O)CC3)CC2)c2ccncc21` (relative stereo) [Example 41, 5-fluoro-N-isopropyl-N-methyl-2-(3-(1-((trans-4-(methylsulfonamido)cyclohexyl)methyl)azepan-4-yl)-1H-pyrrolo[2,3-c]pyridin-1-yl)benzamide], for which the IC50 in assay [1] is less than 100 nM. Besides, the EC50 in assay [2] (Homo sapiens, MV4-11, 72 h) was less than 100 nM.

In assay [1], `CC(C)N(C(=O)c1cc(F)ccc1-n1cc(C2CCCN(Cc3ccc4c(c3)[nH]c(=O)n4CCO)C2)c2ccncc21)C(C)C` (stereo not drawn) [Example 84, 5-fluoro-2-(3-(1-((1-(2-hydroxyethyl)-2-oxo-2,3-dihydro-1H-benzo[d]imidazol-5-yl)methyl)piperidin-3-yl)-1H-pyrrolo[2,3-c]pyridin-1-yl)-N,N-diisopropylbenzamide] displayed a half-inhibitory concentration (IC50) of less than 100 nM. For the same compound, the EC50 in assay [2] (Homo sapiens, MV4-11, 72 h) is less than 100 nM.

`CC(C)N(C)C(=O)c1cc(F)ccc1-n1cc([C@H]2CC[C@@H](N)CC2)c2ccncc21` [Example 58, 2-(3-(cis-4-aminocyclohexyl)-1H-pyrrolo[2,3-c]pyridin-1-yl)-5-fluoro-N-isopropyl-N-methylbenzamide] had an IC50 in assay [1] of 100 to 1000 nM. In addition, the EC50 in assay [2] (Homo sapiens, MV4-11, 72 h) was not below 1000 nM.

For `CC(C)N(C)C(=O)c1cc(F)ccc1-n1cc(C2CCC(NCC3CCC(NS(C)(=O)=O)CC3)CC2)c2ccncc21` (single isomer, unassigned) [Example 62, 5-fluoro-N-isopropyl-N-methyl-2-(3-(4-(((4-(methylsulfonamido)cyclohexyl)methyl)amino)cyclohexyl)-1H-pyrrolo[2,3-c]pyridin-1-yl)benzamide], the IC50 in assay [1] was less than 100 nM. Besides, in assay [2] (72 h), the EC50 is not below 1000 nM.

In turn, `CC(C)N(C)C(=O)c1cc(F)ccc1-n1cc(C2CCN(Cc3ccc4[nH]c(=O)[nH]c4c3)CC2)c2ccncc21` [Example 5, 5-fluoro-N-isopropyl-N-methyl-2-(3-(1-((2-oxo-2,3-dihydro-1H-benzo[d]imidazol-5-yl)methyl)piperidin-4-yl)-1H-pyrrolo[2,3-c]pyridin-1-yl)benzamide] yielded a concentration for half-maximal inhibition (IC50) in assay [1] of less than 100 nM. Moreover, the EC50 in assay [2] (Homo sapiens, MV4-11, 72 h) fell in the range of 100 to 1000 nM.

`CC(=O)N[C@H]1CC[C@H](CN2CCC(c3cn(-c4ccc(F)cc4C(=O)N(C)C(C)C)c4cnccc34)CC2)CC1` [Example 20, 2-(3-(1-(((1r,4r)-4-acetamidocyclohexyl)methyl)piperidin-4-yl)-1H-pyrrolo[2,3-c]pyridin-1-yl)-5-fluoro-N-isopropyl-N-methylbenzamide]: in assay [1], the IC50 is less than 100 nM. In addition, the EC50 in assay [2] (Homo sapiens, MV4-11, 72 h) is 100 to 1000 nM.
